The results in this text go back to patent EP0106487A2, “Improvements in or relating to novel bridged hexahydrobenz(f)isoquinolines” (ELI LILLY AND COMPANY, priority 1982, dated 1984).

Counter-ions that a name gives are not always drawn. Some results are limits rather than exact numbers.

In assay [1] the test system is Cox standard strain albino male mice. In words: Mouse writhing inhibition assay (acetic acid-induced writhing). The class given is in vivo. As to conditions: po, p.o. administration (gavage, 5% acacia suspension, sixty minutes before acetic acid), dose required to inhibit induced writhing by fifty percent. The text has this: Mouse Writhing Inhibition Assay
Writhing, characterized by contraction of the abdominal musculature, extension of the hindlegs, and rotation of the trunk, was induced in Cox standard strain albino male mice. The mice,. weighing 18-24 grams, were fasted overnight and given the test compound by gavage in an acacia suspension (5%) sixty minutes before writhing was induced by the intraperitoneal administration of acetic acid (0.60 percent). Each treatment group consisted of 5 mice. The total number of writhes for the treatment group was determined during a 10-minute observation starting 5 minutes after acetic acid administration.
The results in the mouse writhing assay are presented as the effective dose in mg./kg. of the tested compound required to inhibit induced writhing in the test animals by fifty percent (ED50). Results are presented in Column II for both subcutaneous (s.c.) and oral (p.o.) administration of the test compound as compared to the reference compound meperidine.
For orientation: Writhing tests count abdominal constrictions after an irritant is injected.

Assay [2] shares this test system. The description is as above. The class given is in vivo. Particulars: sc, s.c. administration, dose required to inhibit acetic acid (0.60 percent, i.p.) induced writhing by fifty percent.

On to `CN1CCC23CCCC2(CCc2ccc(O)cc23)C1` (racemic) [Example 2, 1,2,3,4,5,6-hexahydro-3-methyl-4a,lOb-propanobenz[f]isoquinolin-9-ol maleate], for which the results for the ED50 in assay [1] and in assay [2] were 17 mg/kg and 2.4 mg/kg, respectively.
For `CN1CCC23CCCC2(CCc2ccccc23)C1` (racemic) [Example 8, 1,2,3,4,5,6-hexahydro-3-methyl-propanobenz-[f]isoquinoline hydrobromide] the same measures were 68 mg/kg and 23 mg/kg.
As for `COc1ccc2c(c1)C13CCCC1(CC2)CN(C)CC3.Cl` (stereo not shown) [Example 1, 1,2,3,4,5,6-hexahydro-3-methyl-9-methoxy-4a,10b-propanobenz[f]isoquinoline hydrochloride], the ED50 (in general, the dose that gives a 50% effect, or the effect in half of the subjects) in assay [1] was 23 mg/kg; in assay [2], 17 mg/kg.
On the same counts, the results for `COc1ccc2c(c1)C13CCCC1(CC2)CNCC3.Cl` (stereo not shown) [Example 3, 1,2,3,4,5,6-hexahydro-9-methoxy-4a,10b-propanobenz[f]isoquinoline hydrochloride] are 66 mg/kg and 56 mg/kg.
With `Oc1ccc2c(c1)C13CCCC1(CC2)CNCC3` (stereo not shown) [Example 4, 1,2,3,4,5,6-hexahydro-4a,10b-propanobenz[f]-isoquinolin-9-ol], the ED50 in assay [1] is 78 mg/kg; in assay [2], 52 mg/kg.
For `Oc1ccc2c(c1)C13CCCC1(CC2)CN(CC1CC1)CC3` (stereo not shown) [Example 6, 1,2,3,4,5,6-hexahydro-3-cyclopropylmethyl-4a,10b-propanobenz[f]isoquinolin-9-ol], the ED50 was greater than 80 mg/kg in assay [1] and 60 mg/kg in assay [2].
With `C=CCN1CCC23CCCC2(CCc2ccc(O)cc23)C1` (stereo not shown) [Example 7, 1,2,3,4,5,6-hexahydro-3-(2-propenyl)-4a,10b-propanobenz-[f]isoquinolin-9-ol], the ED50 in assay [1] and in assay [2] was greater than 80 mg/kg throughout.
`CCOC(=O)C1(c2ccccc2)CCN(C)CC1` [meperidine, reference compound]: the ED50 was determined as 21 mg/kg in assay [1] and 2.8 mg/kg in assay [2].
